Laboratory results reported in US10028992B2, “Methods of treating muscular dystrophy” (BOARD OF REGENTS OF THE NEVADA SYSTEM OF HIGHER EDUCATION …, priority 2012, dated 2018).
Like-named read-outs stand apart in the source and are kept apart here. Each block holds one compound with its values, some of them ahead of it.

Tested on: α7 integrin promoter
Assay: muscle cell-based assay: α7βgal+/− myoblasts/myotubes, LacZ reporter, β-galactosidase cleavage of FDG
Set-up: species or system mouse; Results in α7+/− β-galactosidase assay: scale not given here
Conditions: for Results in α7+/− β-galactosidase assay / Result in α7+/− β-galactosidase assay: Myoblasts; for Fit Curve Class: key not given; for AC50: log of AC50, given with negative sign, unit of AC50 not given, read-out: Fit Log AC50 (converted)
Method in brief: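 Fluorescein generated from FDG by β-galactosidase reports α7 integrin promoter activity in differentiated myoblasts from α7+/− LacZ knock-in pups. Screening hits then went to dose-response, western blotting and a myostatin counterscreen.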

[1] = Table 12, fitted activity at zero concentration
[2] = Table 12 Compound data, concentration-response curve fit

Structure (SMILES): Cc1ccccc1S(=O)(=O)N1C[C@H]2CON(C)[C@H]2C[C@H]1c1cccc(-c2ccccc2)c1 [drawing 644]
Results in α7+/− β-galactosidase assay (0.5 uM): 0.06241
Results in α7+/− β-galactosidase assay (1 uM): 0.06141
Results in α7+/− β-galactosidase assay (5 uM): 0.04452
Results in α7+/− β-galactosidase assay (10 uM): 0.08987
Results in α7+/− β-galactosidase assay (20 uM): −0.2419
Results in α7+/− β-galactosidase assay (40 uM): −0.2934

Structure (SMILES): CCOc1ccccc1Nc1cc2n(c(=O)n1)CCc1cc(OC)c(OC)cc1-2 [drawing 438]
Results in a α7+/− β-galactosidase assay, Myotubes, 0.5 uM (Myotubes, compound at 0.5 uM): 0.06921
Results in a α7+/− β-galactosidase assay, Myotubes, 1 uM (Myotubes, compound at 1 uM): 0.1295
Results in a α7+/− β-galactosidase assay, Myotubes, 5 uM (Myotubes, compound at 5 uM): −0.255
Results in a α7+/− β-galactosidase assay, Myotubes, 10 uM (Myotubes, compound at 10 uM): −0.3585
Results in a α7+/− β-galactosidase assay, Myotubes, 20 uM (Myotubes, compound at 20 uM): −0.1938
Results in a α7+/− β-galactosidase assay, Myotubes, 40 uM (Myotubes, compound at 40 uM): −0.1921

Structure (SMILES): Cc1cc(C)c(/C=C2\C(=O)Nc3ccccc32)[nH]1 [drawing 720]
Result in α7+/− β-galactosidase assay (0.5 uM): −0.06315
Result in α7+/− β-galactosidase assay (1 uM): −0.0048
Result in α7+/− β-galactosidase assay (5 uM): −0.2673
Result in α7+/− β-galactosidase assay (10 uM): −0.3421
Result in α7+/− β-galactosidase assay (20 uM): −0.3332
Result in α7+/− β-galactosidase assay (40 uM): −0.4797

EC50 (Mus musculus, given as log AC50 (negative values), read-out: Fit LogAC50 (converted)): 10 µM
Structure (SMILES): Cc1ccc(-c2csnn2)cc1 [Compound 170]
Score (Table 12 compound data): 42
Fit Curve Class (curve class number): 2.1
Fit HillSlope (curve fit): 4.4495
Fit Zero Activity [%] (curve fit, activity at zero concentration): 3.4732%

Structure (SMILES): Cc1cc(OCC(=O)NC(C)C)ccc1Cl [drawing 680]
Results in α7+/− β-galactosidase assay (0.5 uM): −0.00101
Results in α7+/− β-galactosidase assay (1 uM): 0.01964
Results in α7+/− β-galactosidase assay (5 uM): −0.2128
Results in α7+/− β-galactosidase assay (10 uM): −0.3742
Results in α7+/− β-galactosidase assay (20 uM): −0.5775
Results in α7+/− β-galactosidase assay (40 uM): −0.6915

Structure (SMILES): Cc1ccc(CNc2ncnc(N)c2[N+](=O)[O-])cc1 [Compound 120]
AC50 (Mus musculus, Table 12): 10 µM
Fit HillSlope (Table 12, curve fit): 0.8
Fit Zero Activity [%] [1]: 11.933%
Fit Curve Class (Table 12): 2.1
Score [2]: 43

Structure (SMILES): Nc1ncnc(NCc2ccccc2)c1[N+](=O)[O-] [drawing 694]
Results in α7+/− β-galactosidase assay (0.5 uM): 0.01911
Results in α7+/− β-galactosidase assay (1 uM): 0.00831
Results in α7+/− β-galactosidase assay (5 uM): 0.2463
Results in α7+/− β-galactosidase assay (10 uM): −0.04019
Results in α7+/− β-galactosidase assay (20 uM): −0.00635
Results in α7+/− β-galactosidase assay (40 uM): 0.02312

Structure (SMILES): c1ccc(-c2nn[nH]n2)nc1 [drawing 616]
Results in α7+/− β-galactosidase assay (0.5 uM): −0.1138
Results in α7+/− β-galactosidase assay (1 uM): −0.161
Results in α7+/− β-galactosidase assay (5 uM): 0.4758
Results in α7+/− β-galactosidase assay (10 uM): −0.06661
Results in α7+/− β-galactosidase assay (20 uM): 0.6134
Results in α7+/− β-galactosidase assay (40 uM): −0.02456

Structure (SMILES): Cc1cc(N2CCOCC2)nc2ccc(N/C(S)=N/Cc3ccc4c(c3)OCO4)cc12 [Compound 122]
AC50 (Mus musculus, Table 12): 10 µM
Fit HillSlope (Table 12, curve fit): 1.2475
Fit Zero Activity [%] [1]: 0.5248%
Fit Curve Class (Table 12): 2.1
Score [2]: 43

Structure (SMILES): O=C(COc1cc2oc(=O)c3c(c2cc1Cl)CCCC3)NC[C@H]1CC[C@H](C(=O)O)CC1 [Compound 95]
AC50 (Mus musculus, Table 12): 7.08 µM
Fit HillSlope (Table 12, curve fit): 1.01
Fit Zero Activity [%] [1]: −14.8966%
Fit Curve Class (Table 12): 2.2
Score [2]: 43

EC50 (Mus musculus, enhancement of α7 integrin expression in muscle cells, read-out: EC50): 5 µM
Structure (SMILES): CCC(=O)c1ccccc1OCCCN1CCCCC1.Cl [Compound ID# 1003, 1 {2-[3-(1-piperidinyl)propoxy}phenyl}-1-propanone hydrochloride]
Optimal Concentration (enhancement of α7 integrin expression in muscle cells): 25 μm
α7 integrin expression in muscle (screen of DIVERSet library): increased

Structure (SMILES): Cc1ccc(C2Nc3cccc4cccc(c34)N2)s1 [Compound 24]
AC50 (Mus musculus, Table 12): 3.16 µM
Emax (Mus musculus, read-out: Max Response [%]): 81.3%
Fit HillSlope (Table 12, curve fit): 2.1211
Fit Zero Activity [%] [1]: 5.7274%
Fit Curve Class (Table 12): 1.1
Score [2]: 84

Structure (SMILES): COc1ccccc1/C=C1\C(=O)Nc2ccccc21 [drawing 700]
Results in α7+/− β-galactosidase assay (0.5 uM): 0.2078
Results in α7+/− β-galactosidase assay (1 uM): 0.1004
Results in α7+/− β-galactosidase assay (5 uM): 0.141
Results in α7+/− β-galactosidase assay (10 uM): 0.312
Results in α7+/− β-galactosidase assay (20 uM): −0.00605
Results in α7+/− β-galactosidase assay (40 uM): −0.06928

Structure (SMILES): Cc1ccc2c(c1)/C(=C/c1ccccc1)C(=O)N2 [drawing 665]
Results in α7+/− β-galactosidase assay (0.5 uM): 0.07717
Results in α7+/− β-galactosidase assay (1 uM): 0.02304
Results in α7+/− β-galactosidase assay (5 uM): 0.03576
Results in α7+/− β-galactosidase assay (10 uM): 0.07323
Results in α7+/− β-galactosidase assay (20 uM): −0.484
Results in α7+/− β-galactosidase assay (40 uM): −0.5725
